From patent publication US7423122B2, “N-terminal and C-terminal markers in nascent proteins” (priority 1999, dated 2008)
Several values for one entry are separate records, joined by “and”; a condition that tells them apart may be missing. Equal entries are not always repeated.

Tests used:
α-HL = α-HL (Staphylococcus aureus, UniProt P09616)
α-hemolysin = α-hemolysin (Staphylococcus aureus, UniProt P09616)
[1] = test system: E. coli T7 S30 transcription/translation extract; assay type: biochemical
[2] = test system: E. coli S30 translation mixtures; assay type: biochemical
[3] = test system: E. coli T7 S30 transcription/translation extract; assay type: biochemical; remark: listed apart in the source
[4] = test system: rabbit red blood cells (rRBCs); assay type: cell-based

Chain of α-hemolysin (P09616 26-319, looked up, natural form): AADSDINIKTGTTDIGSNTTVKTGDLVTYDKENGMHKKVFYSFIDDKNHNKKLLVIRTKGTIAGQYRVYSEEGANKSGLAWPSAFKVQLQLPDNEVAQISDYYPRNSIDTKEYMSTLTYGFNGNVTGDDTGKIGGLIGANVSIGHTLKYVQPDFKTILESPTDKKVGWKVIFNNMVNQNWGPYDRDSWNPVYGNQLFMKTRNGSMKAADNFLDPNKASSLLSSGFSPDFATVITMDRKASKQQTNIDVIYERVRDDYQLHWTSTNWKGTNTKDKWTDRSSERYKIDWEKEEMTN
Chain of α-HL (P09616 26-319, looked up, natural form): as above

Compound: 4,4-difluoro-5,7-dimethyl-4-bora-3a,4a-diaza-s-indacene [BODIPY-FL]
- molar ratio of incorporated BODIPY-FL to protein (α-HL): 0.29+/−0.03%
- amount of alpha-hemolysin detectable (α-hemolysin): Approximately 10 ng
- amount of protein detectable (α-hemolysin): 0.3 ng
- amount of α-hemolysin detectable (α-hemolysin): 0.35-0.5 nanograms
- smallest volume of original reaction mixture giving detectable α-HL band (α-hemolysin): 0.007 µL

Compound: 4,4-difluoro-5,7-dimethyl-4-bora-3a, 4a-diaza-s-indacene propionic acid, sulfosuccinimidyl ester [BODIPY-FL, SSE]
- level of fluorescence of HL band compared to non-sulfonated form [1]: approximately 2 times

Compound: 5-(and-6)-carboxyfluorescein, succinimidyl-ester [Fluorescein (FAM)]
- fluorescence of α-HL band relative to BODIPY-FL-SSE [1]: 8.4%

Compound: 6-(fluorescein-5-(and-6) carboxamido)hexanoic acid, succinimidyl ester [Fluorescein (SFX)]
- fluorescence of α-HL band relative to BODIPY-FL-SSE [1]: 4.6%

Compound: 6-(tetramethylrhodamine-5-(and-6)-carboxamido)hexanoic acid, succinimidyl ester [5/6-TAMRA]
- fluorescence of α-HL band relative to BODIPY-FL-SSE [1]: 35%

Compound: Cc1c(CC(=O)ON2C(=O)CC(S(=O)(=O)O)C2=O)c(=O)oc2cc(N)ccc12 (stereo not drawn) [AMCA-sulfo-NHS, sulfosuccinimidyl 7-amino-4-methylcoumarin-3-acetate]
- detectability / incorporation of fluorescent α-HL bands [2]: easily detectable bands

Compound: COc1ccc(-c2cnc(-c3cc[n+](Cc4cccc(C(=O)ON5C(=O)CCC5=O)c4)cc3)o2)cc1 [PyMPO, 1-(3-(succinimidyloxycarbonyl)benzyl)-4-(5-(4-methoxyphenyl)oxazol-2-yl) pyridininium bromide]
- reduction in fluorescence compared with BODIPY-FL [1]: approximately an order of magnitude reduction in fluorescence

Compound: Alexa 350-N-hydroxy-succinimide ester
- detectability / incorporation of fluorescent α-HL bands [2]: seems to not incorporate as well as its neutral counterpart

Compound: succinimidyl 7-amino-methyl-amino-coumarin acetate [AMCA-NHS]
- detectability / incorporation of fluorescent α-HL bands [2]: very low levels of detectable fluorescent bands

Compound: α-Hemolysin
- earliest time of band detection after initiation of incubation [3]: 5 min
- α-Hemolysin activity [4]: 0.085 OD415 nm/μl and 0.083 OD415 nm/μl
